From patent US6737383B1, “Herbicidal oxadiazolidines” (priority 1999, dated 2004)

Experiments:
crabgrass = assay: Test B pre/postemergence crabgrass; format: in vivo, Digitaria sanguinalis
Outline: (§1)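 Herbicidal effect was estimated by eye on a ten-point control scale after plants spent twelve to sixteen days in a greenhouse following soil or foliar treatment. Foliar sprays targeted plants at one to four leaves; all doses were formulated in a non-phytotoxic solvent with surfactant.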

soybean = assay: Test B pre/postemergence soybean; format: in vivo, Glycine max
Outline: as §1

cocklebur = assay: Test B pre/postemergence cocklebur; format: in vivo, Xanthium strumarium
Outline: as §1

giant foxtail = assay: Test B pre/postemergence giant foxtail; format: in vivo, Setaria faberii
Outline: as §1

surinam grass = assay: Test B pre/postemergence surinam grass; format: in vivo, Brachiaria decumbens
Outline: as §1

bedstraw = assay: Test B pre/postemergence bedstraw; format: in vivo, Galium aparine
Outline: as §1

velvetleaf = assay: Test B pre/postemergence velvetleaf; format: in vivo, Abutilon theophrasti
Outline: as §1

wheat = assay: Test B pre/postemergence wheat; format: in vivo, Triticum aestivum
Outline: as §1

corn = assay: Test B pre/postemergence corn; format: in vivo, Zea mays
Outline: as §1

wild oat = assay: Test B pre/postemergence wild oat; format: in vivo, Avena fatua
Outline: as §1

purple nutsedge = assay: Test B pre/postemergence purple nutsedge; format: in vivo, Cyperus rotundus; settings: Postemergence; for Nutsedge plant response rating: 10 is complete control; for Plant response rating, Nutsedge: scale of 0 to 10 where 0 is no effect and 10 is complete control
Outline: as §1

sugar beet = assay: Test B pre/postemergence sugar beet; format: in vivo, Beta vulgaris
Outline: as §1

pigweed = assay: Test B pre/postemergence pigweed; format: in vivo, Amaranthus retroflexus
Outline: as §1

rape = assay: Test B pre/postemergence rape; format: in vivo, Brassica napus
Outline: as §1

blackgrass = assay: Test B pre/postemergence blackgrass; format: in vivo, Alopecurus myosuroides
Outline: as §1

morningglory = assay: Test B pre/postemergence morningglory; format: in vivo, Ipomoea hederacea
Outline: as §1

[1] = Postemergence, Rate 62 g/ha, scale of 0 to 10, 0 is no effect, 10 is complete control
[2] = Postemergence, Rate 125 g/ha, scale 0 to 10, 0 is no effect, 10 is complete control
[3] = Postemergence, Rate 500 g/ha, scale of 0 to 10 where 0 is no effect and 10 is complete control
[4] = Preemergence, Rate 62 g/ha, scale 0 to 10 (0 no effect, 10 complete control)
[5] = Preemergence, Rate 125 g/ha, scale 0 to 10, 0 is no effect, 10 is complete control
[6] = Preemergence, Rate 500 g/ha, scale of 0 to 10 where 0 is no effect and 10 is complete control
[7] = Rate 250 g/ha, Postemergence, scale of 0 to 10 where 0 is no effect and 10 is complete control

`CC(C)N(C(=O)n1oc(=O)n(CCCF)c1=O)c1ccccc1` [Compound 559] was tested, and the “Crabgrass plant response rating” value (crabgrass; [1]) was 5, the “Crabgrass plant response rating” value (crabgrass; [2]) was 4 and the “Plant response rating, Crabgrass” value (crabgrass; [3]) was 9. For the same compound, the “Crabgrass plant response rating” value (crabgrass; [4]) was 9, the “Crabgrass plant response rating” value (crabgrass; [5]) was 10 and the “Crabgrass plant response rating (0 to 10 scale)” value (crabgrass; Preemergence, Rate 250 g/ha) was 10. The “Crabgrass plant response rating” value (crabgrass; [6]) was 10, the “Plant response rating, Crabgrass” value (crabgrass; [7]) was 9 and the “Soybean plant response rating” value (soybean; [1]) was 4. For the same compound, the “Plant response rating, Soybean” value (soybean; [3]) was 6, the “Soybean plant response rating” value (soybean; [4]) was 0 and the “Soybean plant response rating” value (soybean; [5]) was 2. For the same compound, the “Soybean plant response rating (0 to 10 scale)” value (soybean; Preemergence, Rate 250 g/ha) was 3, the “Soybean plant response rating” value (soybean; [6]) was 3 and the “Plant response rating, Soybean” value (soybean; [7]) was 5. For the same compound, the “Cocklebur plant response rating” value (cocklebur; [1]) was 0, the “Cocklebur plant response rating” value (cocklebur; [2]) was 0 and the “Plant response rating, Cocklebur” value (cocklebur; [3]) was 2. For the same compound, the “Cocklebur plant response rating” value (cocklebur; [4]) was 0, the “Cocklebur plant response rating” value (cocklebur; [5]) was 0 and the “Cocklebur plant response rating (0 to 10 scale)” value (cocklebur; Preemergence, Rate 250 g/ha) was 0. The “Cocklebur plant response rating” value (cocklebur; [6]) was 2, the “Plant response rating, Cocklebur” value (cocklebur; [7]) was 0 and the “Giant foxtail plant response rating” value (giant foxtail; [1]) was 9. The “Giant foxtail plant response rating” value (giant foxtail; [2]) was 9, the “Plant response rating, Giant foxtail” value (giant foxtail; [3]) was 9 and the “Giant foxtail plant response rating” value (giant foxtail; [4]) was 10. For the same compound, the “Giant foxtail plant response rating” value (giant foxtail; [5]) was 10, the “Giant foxtail plant response rating (0 to 10 scale)” value (giant foxtail; Preemergence, Rate 250 g/ha) was 10 and the “Giant foxtail plant response rating” value (giant foxtail; [6]) was 10. For the same compound, the “Plant response rating, Giant foxtail” value (giant foxtail; [7]) was 9, the “B. signalgrass plant response rating” value (surinam grass; [1]) was 4 and the “B. signalgrass plant response rating” value (surinam grass; [2]) was 9. For the same compound, the “Plant response rating, B. signalgrass” value (surinam grass; [3]) was 9, the “B. signalgrass plant response rating” value (surinam grass; [4]) was 8 and the “B. signalgrass plant response rating” value (surinam grass; [5]) was 10. For the same compound, the “B. signalgrass plant response rating (0 to 10 scale, 0 is no effect, 10 is complete control)” value (surinam grass; Preemergence, Rate 250 g/ha) was 9, the “B. signalgrass plant response rating” value (surinam grass; [6]) was 9 and the “Plant response rating, B. signalgrass” value (surinam grass; [7]) was 9. For the same compound, the “Bedstraw plant response rating” value (bedstraw; [2]) was 0, the “Plant response rating, Bedstraw” value (bedstraw; [3]) was 4 and the “Bedstraw plant response rating” value (bedstraw; [4]) was 0. For the same compound, the “Bedstraw plant response rating” value (bedstraw; [5]) was 0, the “Bedstraw plant response rating (0 to 10 scale)” value (bedstraw; Preemergence, Rate 250 g/ha) was 0 and the “Bedstraw plant response rating” value (bedstraw; [6]) was 0. The “Plant response rating, Bedstraw” value (bedstraw; [7]) was 0, the “Velvetleaf plant response rating” value (velvetleaf; [1]) was 0 and the “Plant response rating, Velvetleaf” value (velvetleaf; [3]) was 3. For the same compound, the “Velvetleaf plant response rating” value (velvetleaf; [4]) was 3, the “Velvetleaf plant response rating” value (velvetleaf; [5]) was 4 and the “Velvetleaf plant response rating (0 to 10 scale)” value (velvetleaf; Preemergence, Rate 250 g/ha) was 6. For the same compound, the “Velvetleaf plant response rating” value (velvetleaf; [6]) was 9, the “Plant response rating, Velvetleaf” value (velvetleaf; [7]) was 2 and the “Wheat plant response rating” value (wheat; [1]) was 2. The “Plant response rating, Wheat” value (wheat; [3]) was 3, the “Wheat plant response rating” value (wheat; [4]) was 3 and the “Wheat plant response rating” value (wheat; [5]) was 8. The “Wheat plant response rating (0 to 10 scale)” value (wheat; Preemergence, Rate 250 g/ha) was 9, the “Wheat plant response rating” value (wheat; [6]) was 9 and the “Plant response rating, Wheat” value (wheat; [7]) was 2. For the same compound, the “Corn plant response rating” value (corn; [1]) was 0, the “Corn plant response rating” value (corn; [2]) was 0 and the “Plant response rating, Corn” value (corn; [3]) was 7. For the same compound, the “Corn plant response rating” value (corn; [4]) was 2, the “Corn plant response rating” value (corn; [5]) was 3 and the “Corn plant response rating (0 to 10 scale)” value (corn; Preemergence, Rate 250 g/ha) was 6. For the same compound, the “Corn plant response rating” value (corn; [6]) was 6, the “Plant response rating, Corn” value (corn; [7]) was 6 and the “Wild oats plant response rating” value (wild oat; [1]) was 2. For the same compound, the “Plant response rating, Wild oats” value (wild oat; [3]) was 5, the “Wild oats plant response rating” value (wild oat; [5]) was 9 and the “Wild oats plant response rating (0 to 10 scale)” value (wild oat; Preemergence, Rate 250 g/ha) was 9. For the same compound, the “Wild oats plant response rating” value (wild oat; [6]) was 9, the “Plant response rating, Wild oats” value (wild oat; [7]) was 4 and the “Nutsedge plant response rating” value (purple nutsedge; Rate 62 g/ha, scale of 0 to 10, 0 is no effect) was 0. For the same compound, the “Nutsedge plant response rating” value (purple nutsedge; Rate 125 g/ha, scale 0 to 10, 0 is no effect) was 0, the “Plant response rating, Nutsedge” value (purple nutsedge; Rate 500 g/ha) was 2 and the “Plant response rating, Nutsedge” value (purple nutsedge; Rate 250 g/ha) was 2. The “Sugarbeets plant response rating” value (sugar beet; [1]) was 0, the “Plant response rating, Sugarbeets” value (sugar beet; [3]) was 8 and the “Sugarbeets plant response rating” value (sugar beet; [4]) was 3. For the same compound, the “Sugarbeets plant response rating” value (sugar beet; [5]) was 6, the “Sugarbeets plant response rating (0 to 10 scale)” value (sugar beet; Preemergence, Rate 250 g/ha) was 9 and the “Sugarbeets plant response rating” value (sugar beet; [6]) was 9. The “Plant response rating, Sugarbeets” value (sugar beet; [7]) was 2, the “Redroot pigweed plant response rating” value (pigweed; [1]) was 0 and the “Plant response rating, Redroot pigweed” value (pigweed; [3]) was 8. For the same compound, the “Redroot pigweed plant response rating” value (pigweed; [4]) was 7, the “Redroot pigweed plant response rating” value (pigweed; [5]) was 10 and the “Redroot pigweed plant response rating (0 to 10 scale)” value (pigweed; Preemergence, Rate 250 g/ha) was 10. The “Redroot pigweed plant response rating” value (pigweed; [6]) was 10, the “Plant response rating, Redroot pigweed” value (pigweed; [7]) was 3 and the “Rape plant response rating” value (rape; [1]) was 0. The “Rape plant response rating” value (rape; [2]) was 0, the “Plant response rating, Rape” value (rape; [3]) was 2 and the “Rape plant response rating” value (rape; [4]) was 7. For the same compound, the “Rape plant response rating” value (rape; [5]) was 9, the “Rape plant response rating (0 to 10 scale)” value (rape; Preemergence, Rate 250 g/ha) was 10 and the “Rape plant response rating” value (rape; [6]) was 10. For the same compound, the “Plant response rating, Rape” value (rape; [7]) was 2, the “Blackgrass plant response rating” value (blackgrass; [1]) was 7 and the “Blackgrass plant response rating” value (blackgrass; [2]) was 7. The “Plant response rating, Blackgrass” value (blackgrass; [3]) was 7, the “Blackgrass plant response rating” value (blackgrass; [4]) was 9 and the “Blackgrass plant response rating” value (blackgrass; [5]) was 10. The “Blackgrass plant response rating (0 to 10 scale)” value (blackgrass; Preemergence, Rate 250 g/ha) was 10, the “Blackgrass plant response rating” value (blackgrass; [6]) was 10 and the “Plant response rating, Blackgrass” value (blackgrass; [7]) was 7. The “Morningglory plant response rating” value (morningglory; [1]) was 9, the “Morningglory plant response rating” value (morningglory; [2]) was 10 and the “Plant response rating, Morningglory” value (morningglory; [3]) was 10. The “Morningglory plant response rating” value (morningglory; [4]) was 0, the “Morningglory plant response rating” value (morningglory; [5]) was 2 and the “Morningglory plant response rating (0 to 10 scale)” value (morningglory; Preemergence, Rate 250 g/ha) was 4. For the same compound, the “Morningglory plant response rating” value (morningglory; [6]) was 8 and the “Plant response rating, Morningglory” value (morningglory; [7]) was 9.
